Several values for one entry are separate records, joined by “and”; a condition that tells them apart may be missing. Equal entries are not always repeated.
Legend:
[1] = Propylene polymerization, catalyst activity
Source text: Solutions of the pre-catalysts were made using toluene (ExxonMobil Chemical-anhydrous, stored under N2) (98%) or isohexane (ExxonMobil Chemical—polymerization grade, and purified as described below). Pre-catalyst solutions were typically 0.25 mmol/L.
Activation of the pre-catalysts was either by dimethylanilinium tetrakisperfluorophenylborate (Boulder Scientific or Albemarle Corp; Act ID=A) or (hydrogenated tallow alkyl)methylammonium tetrakis(pentafluorophenyl)borate supplied as a 10 wt % solution in methylcyclohexane (Boulder Scientific; Act ID=B). Activators were typically used as a 0.25 mmol/L solution in toluene or isohexane.
Tri-n-octylaluminum (TnOAl or TNOA, Neat, AkzoNobel) was also used as a scavenger prior to introduction of the activator and pre-catalyst into the reactor. TNOA was typically used as a 5 mmol/L solution in toluene or isohexane.
Polymerizations were conducted in an inert atmosphere (N2) drybox using autoclaves equipped with an external heater for temperature control, glass inserts (internal volume of 22.5 mL), septum inlets, regulated supply of nitrogen and propylene, and equipped with disposable PEEK mechanical stirrers (800 RPM). The autoclaves were prepared by purging with dry nitrogen at 110° C. or 115° C. for 5 hours and then at 25° C. for 5 hours.
The reactor was prepared as described above, then heated to 40° C., and then purged with propylene gas at atmospheric pressure. Toluene or isohexanes, liquid propylene (1.0 mL) and scavenger (TNOA, 0.5 μmol) were added via syringe. The reactor was then brought to process temperature (70° C. or 100° C.) while stirring at 800 RPM. The activator solution, followed by the pre-catalyst solution, were injected via syringe to the reactor at process conditions. Reactor temperature was monitored and typically maintained within +/−1° C. Polymerizations were halted by addition of approximately 50 psi compressed dry air gas mixture to the autoclaves for approximately 30 seconds. The polymerizations were quenched based on a predetermined pressure loss (maximum quench value) or for a maximum of 30 minutes. The reactors were cooled and vented. The polymers were isolated after the solvent was removed in-vacuo. The actual quench time (s) is reported as quench time (s). Yields reported include total weight of polymer and residual catalyst. […] Propylene homopolymerization examples are reported in Table 2 with additional characterization in Table 3.
Polymerization results are collected in Tables 2. “Ex #” stands for example number. Example numbers starting with a “C” are comparative examples. “Cat ID” identifies the pre-catalyst used in the experiment. Corresponding numbers identifying the pre-catalyst (also referred to as pre-catalyst, catalyst, complex or compound) are located in the synthetic experimental section. T (° C.) is the polymerization temperature which was typically maintained within +/−1° C. “Yield” is polymer yield, and is not corrected for catalyst residue. “Quench time (s)” is the actual duration of the polymerization run in seconds. For propylene homopolymerization runs, quench value indicates the maximum set pressure loss (conversion) of propylene during the polymerization. Activity is reported at grams polymer per mmol of catalyst per hour.
Activator A is N,N-dimethylanilinium tetrakis(pentafluorophenyl)borate activator and activator B is (hydrogenated tallow alkyl)methylammonium tetrakis(pentafluorophenyl)borate. When activator A was used, both the pre-catalyst and activator solutions were in toluene. When activator B was used, both pre-catalyst and activator solutions were in isohexane. Small amounts of methylcyclohexane (MCH) result from activator B being supplied by the manufacturer as a 10 wt % solution in methylcyclohexane.

[2] = Solubility of complexes in isohexane at room temperature; format: physicochemical; conditions: room temperature (20° C.-25° C.); for Solubility in isohexane: cocrystallized solvent included in formula weight; for Solubility in isohexane (wt %): cocrystallized solvent included in mass
Method: General considerations: Solubility studies were performed using complexes that were isolated as crystalline or microcrystalline solids. […] Complex 3, embodying the present technological advancement, was cocrystallized with 0.6 equivalents of isohexane. Complex 4, embodying the present technological advancement, was cocrystallized with 0.5 equivalents of isohexane. Solvents used were sparged with nitrogen (30-60 minutes) and dried over 3 angstrom molecular sieves. Unless stated otherwise all measurements were performed at ambient temperature (20° C.-25° C.).
General procedure: A tared vial was loaded with a small amount of the complex (actual mass recorded, typically 5-30 mg). Then a small stir bar (8 mm) was added. Solvent was then added and the mixture was stirred rapidly (1000 rpm). […] This process was repeated until either a clear solution was obtained (no visible solids or murkiness) or the vial was full. As the mixture approached homogeneity (i.e., few remaining solids observed) the volume of the solvent additions was kept small (<1 mL) to minimize the overshooting of the solvent required to achieve homogeneity. The stir bar was then removed and the mass of the mixture was measured. If a clear solution had formed then the solubility of the complex was calculated based on the mass of complex and the amount of solvent added to achieve a homogeneous solution. If the mixture remained heterogeneous (visible solids or murky), then the value reported is given as being “less than” the calculated value. Formulas used to calculate solubility are listed below. Cocrystallized solvent is included in the mass and formula weights of the complexes. The density of isohexane used in the calculations was 0.672 g/ml, and the density of the complex was assumed to be 1.0 g/ml.
Solubility (in wt %)=[100]*[(weight of complex)/(weight of solution)]
Solubility (in mM)=[10^6]*[(grams of complex)/(formula wt. of complex in g/mol)]/[(grams of solvent)/(density of solvent in g/mL)]

[3] = Activator B ((hydrogenated tallow alkyl)methylammonium tetrakis(pentafluorophenyl)borate), T 70 °C, solutions in isohexane, no toluene
[4] = Activator B ((hydrogenated tallow alkyl)methylammonium tetrakis(pentafluorophenyl)borate), T 100 °C, solutions in isohexane, no toluene

Row | Compound | Activity (g P/mmol cat · hr) [1, 3] | Activity (g P/mmol cat · hr) ([1]; Activator A (N,N-dimethylanilinium tetrakis(pentafluorophenyl)borate), T 100 °C, catalyst and activator solutions in toluene) | Activity (g P/mmol cat · hr) [1, 4] | Solubility in isohexane [2] | Solubility in isohexane (wt %) [2]
1 | CCCCCCCCCCCCOc1ccc2c(c1)-c1cc(C(C)(C)C)cc(C34CC5CC(CC(C5)C3)C4)c1[O][Zr]([CH3])([CH3])[O]c1c(cc(C(C)(C)C)cc1C13CC4CC(CC(C4)C1)C3)-c1cc(OCCCCCCCCCCCC)ccc1-c1cccc-2n1 [Complex 6] | 1,713,412 g P/mmol cat · hr and 1,940,093 g P/mmol cat · hr and 1,864,216 g P/mmol cat · hr |  |  |  | 
2 | CCCCCCCCOc1ccc2c(c1)-c1cc(C(C)(C)C)cc(C34CC5CC(CC(C5)C3)C4)c1[O][Zr]([CH3])([CH3])[O]c1c(cc(C(C)(C)C)cc1C13CC4CC(CC(C4)C1)C3)-c1cc(OCCCCCCCC)ccc1-c1cccc-2n1 [Complex 5] | 6,656,571 g P/mmol cat · hr and 5,844,800 g P/mmol cat · hr and 5,664,000 g P/mmol cat · hr | 3,376,421 g P/mmol cat · hr and 2,318,545 g P/mmol cat · hr and 2,591,040 g P/mmol cat · hr | 2,700,444 g P/mmol cat · hr and 1,772,923 g P/mmol cat · hr and 2,571,840 g P/mmol cat · hr |  | 
3 | dimethylzirconium[2′,2′″-(pyridine-2,6-diyl)bis(3-adamantan-1-yl)-5-(tert-butyl)-[1,1′-biphenyl]-2-olate)] [Complex 2, reference compound] | 2,069,268 g P/mmol cat · hr and 4,201,200 g P/mmol cat · hr and 3,074,182 g P/mmol cat · hr |  | 2,345,000 g P/mmol cat · hr and 2,682,545 g P/mmol cat · hr and 2,225,032 g P/mmol cat · hr |  | 
4 | CCCCOc1ccc2c(c1)-c1cc(C)cc(C34CC5CC(CC(C5)C3)C4)c1[O][Zr]([CH3])([CH3])[O]c1c(cc(C)cc1C13CC4CC(CC(C4)C1)C3)-c1cc(OCCCC)ccc1-c1cccc-2n1 [Complex 3] |  |  |  | 1.10 mM | 0.168 wt %
5 | CCCCOc1ccc2c(c1)-c1cc(C(C)(C)C)cc(C34CC5CC(CC(C5)C3)C4)c1[O][Zr]([CH3])([CH3])[O]c1c(cc(C(C)(C)C)cc1C13CC4CC(CC(C4)C1)C3)-c1cc(OCCCC)ccc1-c1cccc-2n1 [Complex 4] |  |  | 2,448,000 g P/mmol cat · hr and 2,638,800 g P/mmol cat · hr and 1,007,059 g P/mmol cat · hr | 15.7 mM | 2.55 wt %

Reference: patent US20250353867A1, “Substituted Pyridine-2,6-Bis(Phenylenephenolate) Complexes with Enhanced Solubility that are Useful as Catalyst Components for Olefin Polymerization” (EXXONMOBIL CHEMICAL PATENTS INC., priority 2022, published 2025)
